Assay: GC/MS analysis of incorporation of methyl jasmonate into nano carriers (inclusion complexes)
Assay type: physicochemical
Details: determined by GC
Protocol: The following analysis were performed with GC/MS (gas chromatography/mass spectrometry), showing possible breakages of the elements that are included in the jasmonate family and also inclusion of such elements in several nano carriers such as dendrimers and CDs for comparison of analytical behavior. Used dendrimers was PAMAM (poly amide amine). Cyclodextrin was used as β-cyclodextrin.
Preparation of inclusion complexes was performed according to Rajewski R A, Stella V J pharmaceutical applications of cyclodextrins. 2. In delivering the in vivo drug. J. Pharm Sci 1996; 85 (11):1142-69. Inclusion compounds, or nano/micro carriers with jasmonates, can be prepared through mixing a different concentration from zero from one or more jasmonate compounds with up to a molar proportion equivalent to the host molecule. The preparation process also includes mixing the compound resulting from metabolism of the element of the jasmonate family in a water solution or other solution with acceptable pharmaceutical salts. The resulting solution is agitated until total dissolution of components in solvent. The mixing time is of some hours until the mixture reaches thermodynamic balance. […]

- percentage regarding incorporation of methyl jasmonate within PAMAM dendrimers (carrier PAMAM (poly amide amine) dendrimers): around 95%
- percentage regarding incorporation of methyl jasmonate within β-CD (carrier β-cyclodextrin): 98-99%
Compound: CC/C=C\CC1C(=O)CCC1CC(=O)OC (centres unmarked) [methyl jasmonate]

— US20140220132A1, “Pharmaceutical Formulation Comprising Compounds of the Jasmonate Family” (priority 2011, published 2014)
